These molecules were tested on panel of 100 kinases (assay: Selectivity against a panel of kinases (Upstate/Millipore), expressed as Gini coefficient). Details: reference compounds with aromatic C(5) group, calculated from Table 4 data, concentration not given.
Type: biochemical
Experimental: Selectivity of Compounds (I) Against a Panel of Kinases
Inhibitory potency of compound (I-8) and (I-60) at a concentration of 1 micromolar and (I-69) and (I-70) at a concentration of 5 micromolar with ATP concentration of 10 micromolar was determined at Upstate/Millipore against a panel of 100 kinases representing all major families within the kinome. The results are presented in Table 3 and are expressed as percentage of remaining activity.
For comparison purposes Table 4 contains the relevant inhibitory data for reference compounds A-L containing a (hetero)aromatic ring at C(5) of the 7-azaindole system.
Selectivity Expressed as Gini Coefficient
Selectivity of compounds according to the present invention and reference compounds expressed as Gini coefficient (J. Med. Chem. 2007, 50, 5773-5779) is shown in Table 5. The individual Gini coefficients have been calculated using the data in Tables 3 and 4. Value Gini=0 corresponds to a totally non-selective compound; value Gini=1 reflects perfect selectivity (inhibition of a single target only)

Row | Compound | Selectivity expressed as Gini coefficient
1 | CN1CCN(c2ccc(-c3cnc4[nH]cc(-c5csc(C(=O)N6CCCCC6)n5)c4c3)cc2)CC1 [D] | 0.2705
2 | c1ncc(-c2c[nH]c3ncc(-c4ccc(N5CCOCC5)cc4)cc23)s1 [L] | 0.3642
3 | O=C(c1nc(-c2c[nH]c3ncc(-c4ccccc4)cc23)cs1)N1CCOCC1 [K] | 0.2968
4 | Cn1cc(-c2c[nH]c3ncc(-c4ccc(N5CCOCC5)cc4)cc23)cn1 [B] | 0.3920
5 | CN1CCC(c2csc(-c3cnc4[nH]cc(-c5cnn(C)c5)c4c3)n2)CC1 [E] | 0.3757
6 | c1nc2[nH]cc(-c3cn[nH]c3)c2cc1-c1csc(C2CCNCC2)n1 [C] | 0.4129
7 | CC(C)Cn1cc(-c2cnc3[nH]cc(-c4cnn(C)c4)c3c2)cn1 [F] | 0.3777
8 | CN1CCN(C(=O)c2nc(-c3c[nH]c4ncc(-c5ccc(N6CCN(C)CC6)cc5)cc34)cs2)CC1 [J] | 0.3286
9 | CN(C)C(=O)c1nc(-c2c[nH]c3ncc(-c4ccccc4)cc23)cs1 [G] | 0.3501
10 | CN(C)c1ccc(-c2cnc3[nH]cc(-c4cn[nH]c4)c3c2)cc1 [A] | 0.3368
11 | CN1CCN(c2nc(-c3c[nH]c4ncc(-c5ccccc5)cc34)cs2)CC1 [H] | 0.4917

The molecules below were run against JNK3 (Homo sapiens, UniProt P53779) (assay: JNK3 SPA assay (phosphorylation of GST-c-Jun)). Details: 3.33 μM ATP, GST-c-Jun substrate, read-out: IC50 against JNK3.
Type: biochemical
Experimental: JNK1, JNK2, JNK3—SPA Assay
JNK1, JNK2, JNK3—SPA Assay • 1. Compound is dissolved in DMSO to a convenient concentration and this is diluted in 10% DMSO to a five times concentrate of the desired starting concentration (frequently 1:100). • 2. 10 μl of 500 mM EDTA is added to alternative wells of the Opti-plate row, which will receive kinase reaction plus DMSO. This creates the negative control. • 3. For the JNK2 and JNK3 assay, compounds are prepared in six 2-fold dilutions with water and each concentration is tested in duplicate. For the JNK1 assay compounds are prepared in four 5-fold dilutions with water which are tested in triplicate. Controls are treated identically. • 4. 20 μl per well of each compound concentration is transferred to an Opti-plate, in duplicate. • 5. 30 μl (JNK2/3 SPA) or 50 μl (JNK1 SPA) of substrate solution (25 mM HEPES pH 7.5, 10 mM magnesium acetate with 3.33 μM ATP (JNK2/3) or 2 μM ATP (JNK1), approximately 7.5 kBq [γ-^33P] ATP, GST-c-Jun, in water) is added to each well. • 6. 50 μl (JNK2/3 SPA) or 30 μl (JNK1 SPA) of kinase solution (JNK in 25 mM HEPES pH 7.5, 10 mM Mg Acetate) is added to each well.
• 7. The plate is incubated for 30 minutes at room temperature. • 8. 100 μl of bead/stop solution is added to each well (5 mg/ml glutathione-PVT-SPA beads, 40 mM ATP in PBS). • 9. Plates are sealed and incubated for 30 minutes at room temperature, centrifuged for 10 minutes at 2500 g and counted. • 10. The IC50 values are calculated as the concentration of the compound being tested at which the phosphorylation of c-Jun is decreased to 50% of the control value.

JNK3, sequence (P53779 whole entry, species assumed): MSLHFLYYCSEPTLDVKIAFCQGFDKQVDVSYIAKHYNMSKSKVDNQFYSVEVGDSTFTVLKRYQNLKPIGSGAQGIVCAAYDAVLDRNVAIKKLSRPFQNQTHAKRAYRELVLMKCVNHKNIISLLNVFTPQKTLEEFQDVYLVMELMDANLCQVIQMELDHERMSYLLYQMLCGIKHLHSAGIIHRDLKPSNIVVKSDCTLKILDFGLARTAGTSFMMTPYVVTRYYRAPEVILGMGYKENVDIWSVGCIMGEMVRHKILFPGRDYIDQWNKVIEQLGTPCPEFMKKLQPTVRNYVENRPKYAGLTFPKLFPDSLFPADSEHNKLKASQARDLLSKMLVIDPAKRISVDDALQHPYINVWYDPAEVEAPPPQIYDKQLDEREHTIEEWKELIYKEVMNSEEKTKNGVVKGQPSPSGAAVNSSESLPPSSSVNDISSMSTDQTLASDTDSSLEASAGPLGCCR

Row | IC50 [nM] | Compound
12 | 933 | Cc1csc(-c2c[nH]c3ncc(C4CCCCC4)cc23)n1 [Compound I-51, 2-(5-cyclohexyl-1H-pyrrolo[2,3-b]pyridin-3-yl)-4-methylthiazole]
13 | 479 | COc1nc(-c2c[nH]c3ncc([C@H]4CC[C@H](N5CCOCC5)CC4)cc23)cs1 [Compound I-120, 4-((1r,4r)-4-(3-(2-methoxythiazol-4-yl)-1H-pyrrolo[2,3-b]pyridin-5-yl)cyclohexyl)morpholine]
14 | > 2000 | CN1CCN([C@H]2CC[C@@H](c3cnc4[nH]cc(-c5csc(C6CCCN6C)n5)c4c3)CC2)CC1 (stereo partly drawn) [Compound I-110, 4-(5-((1s,4s)-4-(4-methylpiperazin-1-yl)cyclohexyl)-1H-pyrrolo[2,3-b]pyridin-3-yl)-2-(1-methylpyrrolidin-2-yl)thiazole]
15 | 520 | COc1nc(-c2c[nH]c3ncc([C@H]4CC[C@H](N5CCCOCC5)CC4)cc23)cs1 [Compound I-124, 3-(2-methoxy-1,3-thiazol-4-yl)-5-[trans-4-(1,4-oxazepan-4-yl)cyclohexyl]-1H-pyrrolo[2,3-b]pyridine]
16 | 238 | O=C(c1nc(-c2c[nH]c3ncc(C4CCCCC4)cc23)cs1)N1CCCCC1 [Compound I-7, [4-(5-Cyclohexyl-1H-pyrrolo[2,3-b]pyridin-3-yl)-thiazol-2-yl]-piperidin-1-yl-methanone]
17 | 111 | O=C(c1nc(-c2c[nH]c3ncc(C4CCCCC4)cc23)cs1)N1CCOCC1 [Compound I-8, [4-(5-Cyclohexyl-1H-pyrrolo[2,3-b]pyridin-3-yl)-thiazol-2-yl]-morpholin-4-yl-methanone]
18 | 575 | Cc1csc(-c2c[nH]c3ncc([C@H]4CC[C@H](N5CCOCC5)CC4)cc23)n1 [Compound I-61, 4-((1r,4r)-4-(3-(4-methylthiazol-2-yl)-1H-pyrrolo[2,3-b]pyridin-5-yl)cyclohexyl)morpholine]
19 | 40 | CN1CCN(C(=O)c2nc(-c3c[nH]c4ncc(C5=CCC(C)(C)C=C5)cc34)cs2)CC1 [Compound I-17, {4-[5-(4,4-Dimethyl-cyclohexa-1,5-dienyl)-1H-pyrrolo[2,3-b]pyridin-3-yl]-thiazol-2-yl}-(4-methyl-piperazin-1-yl)-methanone]
20 | 832 | Cc1csc(-c2c[nH]c3ncc([C@H]4CC[C@H](N5CCCOCC5)CC4)cc23)n1 [Compound I-117, 4-((1r,4r)-4-(3-(4-methylthiazol-2-yl)-1H-pyrrolo[2,3-b]pyridin-5-yl)cyclohexyl)-1,4-oxazepane]
21 | 871 | Cc1cnc(-c2c[nH]c3ncc([C@H]4CC[C@H](N5CCOCC5)CC4)cc23)s1 [Compound I-62, 4-((1r,4r)-4-(3-(5-methylthiazol-2-yl)-1H-pyrrolo[2,3-b]pyridin-5-yl)cyclohexyl)morpholine]
22 | 1450 | Cc1cnc(-c2c[nH]c3ncc([C@H]4CC[C@H](N5CCCOCC5)CC4)cc23)s1 [Compound I-121, 3-(5-methyl-1,3-thiazol-2-yl)-5-[trans-4-(1,4-oxazepan-4-yl)cyclohexyl]-1H-pyrrolo[2,3-b]pyridine]
23 | 269 | CN1CCN([C@H]2CC[C@H](c3cnc4[nH]cc(-c5nc(C(F)(F)F)cs5)c4c3)CC2)CC1 [Compound I-82, 2-(5-((1r,4r)-4-(4-methylpiperazin-1-yl)cyclohexyl)-1H-pyrrolo[2,3-b]pyridin-3-yl)-4-(trifluoromethyl)thiazole]
24 | 162 | O=C(c1nc(-c2c[nH]c3ncc([C@H]4CC[C@H](N5CCOCC5)CC4)cc23)cs1)N1CCOCC1 [Compound I-34, morpholino(4-(5-((1r,4r)-4-morpholinocyclohexyl)-1H-pyrrolo[2,3-b]pyridin-3-yl)thiazol-2-yl)methanone]
25 | 229 | O=C(c1nc(-c2c[nH]c3ncc([C@H]4CC[C@@H](N5CCOCC5)CC4)cc23)cs1)N1CCCCC1 [Compound I-30, (4-(5-((1r,4r)-4-morpholinocyclohexyl)-1H-pyrrolo[2,3-b]pyridin-3-yl)thiazol-2-yl)(piperidin-1-yl)methanone]
26 | 434 | CN1CCC(c2nc(-c3c[nH]c4ncc(C5=CCCC5)cc34)cs2)CC1 [Compound I-1, 5-Cyclopent-1-enyl-3-[2-(1-methyl-piperidin-4-yl)-thiazol-4-yl]-1H-pyrrolo[2,3-b]pyridine]
27 | 724 | CN1CCC(c2nc(-c3c[nH]c4ncc(C5CCC6(CC5)OCCO6)cc34)cs2)CC1 [Compound I-23, 5-(1,4-Dioxa-spiro[4.5]dec-8-yl)-3-[2-(1-methyl-piperidin-4-yl)-thiazol-4-yl]-1H-pyrrolo[2,3-b]pyridine]
28 | 1440 | CN1CCCC1c1nc(-c2c[nH]c3ncc([C@H]4CC[C@@H](N5CCCOCC5)CC4)cc23)cs1 (stereo partly drawn) [Compound I-114, 4-((1s,4s)-4-(3-(2-(1-methylpyrrolidin-2-yl)thiazol-4-yl)-1H-pyrrolo[2,3-b]pyridin-5-yl)cyclohexyl)-1,4-oxazepane]
29 | > 1000 | Cc1nc(-c2c[nH]c3ncc([C@H]4CC[C@@H](N5CCCOCC5)CC4)cc23)cs1 [Compound I-76, 4-((1s,4s)-4-(3-(2-methylthiazol-4-yl)-1H-pyrrolo[2,3-b]pyridin-5-yl)cyclohexyl)-1,4-oxazepane]
30 | 580 | c1ncc(-c2c[nH]c3ncc(C4CCCCC4)cc23)s1 [Compound I-48, 5-(5-cyclohexyl-1H-pyrrolo[2,3-b]pyridin-3-yl)thiazole]
